From PubChem BioAssay AID328 (DTP/NCI, 2004)
Inconclusive results and toxic doses are left out. Rule for the calls: active = survival T/C of 150% or more; inactive = T/C below 125% in these data.

System: BDF1 mice, P388 leukemia ip, median survival T/C
Experiment: NCI In Vivo Anticancer Drug Screen. Data for tumor model P388 Leukemia (intraperitoneal) in B6D2F1 (BDF1) mice
Conditions: endpoint: median survival time, higher = longer survival
Summary of the method: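 Read-out is survival of treated animals expressed relative to the vehicle group, as a T/C ratio.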

[1] = dose: 100.0 mg/kg/injection, schedule: Q01DX009 (ip), vehicle: saline with Tween-80
[2] = dose: 200.0 mg/kg/injection, schedule: Q01DX009 (ip), vehicle: saline with Tween-80
[3] = dose: 100.0 mg/kg/injection, schedule: Q04DX003 (ip), vehicle: saline with Tween-80

Measured: T/C

CC[C@]1(O)C[C@H]2CN(CCc3c([nH]c4ccccc34)[C@@](C(=O)OC)(c3cc4c(cc3OC)N(C)[C@H]3[C@@](O)(C(=O)OC)[C@H](OC(C)=O)[C@]5(CC)C=CCN6CC[C@]43[C@@H]65)C2)C1
active: dose: 0.03 mg/kg/injection, schedule: Q03HX024 (ip), vehicle: saline 185 % of control | dose: 0.06 mg/kg/injection, schedule: Q03HX016 (ip), vehicle: saline 162 % of control | dose: 0.12 mg/kg/injection, schedule: Q01DX009 (ip), vehicle: saline 166 % of control | dose: 0.12 mg/kg/injection, schedule: Q01DX009 (ip), vehicle: water 252 % of control | dose: 0.12 mg/kg/injection, schedule: Q03HX016 (ip), vehicle: saline 222 % of control | dose: 0.12 mg/kg/injection, schedule: Q03HX024 (ip), vehicle: saline 222 % of control | dose: 0.25 mg/kg/injection, schedule: Q01DX009 (ip), vehicle: saline 185 % of control | dose: 0.25 mg/kg/injection, schedule: Q01DX009 (ip), vehicle: water 240 % of control | dose: 0.25 mg/kg/injection, schedule: Q01DX010 (ip), vehicle: water 209 % of control | dose: 0.25 mg/kg/injection, schedule: Q03HX008 (ip), vehicle: saline 185 % of control | dose: 0.25 mg/kg/injection, schedule: Q03HX016 (ip), vehicle: saline 214 % of control | dose: 0.25 mg/kg/injection, schedule: Q04DX003 (ip), vehicle: saline 166 % of control | dose: 0.5 mg/kg/injection, schedule: Q01DX009 (ip), vehicle: saline 214 % of control | dose: 0.5 mg/kg/injection, schedule: Q01DX009 (ip), vehicle: water 222 % of control | dose: 0.5 mg/kg/injection, schedule: Q01DX010 (ip), vehicle: water 195 % of control | dose: 0.5 mg/kg/injection, schedule: Q04DX003 (ip), vehicle: saline 196 % of control | dose: 0.5 mg/kg/injection, schedule: Q08DX002 (ip), vehicle: saline 170 % of control | dose: 0.65 mg/kg/injection, schedule: Q04DX003 (ip), vehicle: saline 200 % of control | dose: 1.0 mg/kg/injection, schedule: Q03HX008 (ip), vehicle: saline 200 % of control | dose: 1.0 mg/kg/injection, schedule: Q04DX003 (ip), vehicle: saline 214 % of control | dose: 1.0 mg/kg/injection, schedule: Q08DX002 (ip), vehicle: saline 188 % of control | dose: 1.08 mg/kg/injection, schedule: Q04DX003 (ip), vehicle: saline 193 % of control | dose: 1.8 mg/kg/injection, schedule: Q04DX003 (ip), vehicle: saline 234 % of control | dose: 2.0 mg/kg/injection, schedule: Q01DX001 (ip), vehicle: saline 162 % of control | dose: 2.0 mg/kg/injection, schedule: Q01DX001 (ip), vehicle: water 150 % of control | dose: 2.0 mg/kg/injection, schedule: Q08DX002 (ip), vehicle: saline 214 % of control | dose: 4.0 mg/kg/injection, schedule: Q01DX001 (ip), vehicle: saline 185 % of control | dose: 4.0 mg/kg/injection, schedule: Q01DX001 (ip), vehicle: water 161 % of control | dose: 8.0 mg/kg/injection, schedule: Q01DX001 (ip), vehicle: saline 177 % of control | dose: 16.0 mg/kg/injection, schedule: Q01DX001 (ip), vehicle: saline 188 % of control | dose: 625.0 micrograms/kg/injection, schedule: Q04DX003 (ip), vehicle: saline 200 % of control | dose: 648.0 micrograms/kg/injection, schedule: Q04DX003 (ip), vehicle: saline 180 % of control | dose: 1080.0 micrograms/kg/injection, schedule: Q04DX003 (ip), vehicle: saline 195 % of control | dose: 1250.0 micrograms/kg/injection, schedule: Q04DX003 (ip), vehicle: saline 238 % of control | dose: 1800.0 micrograms/kg/injection, schedule: Q04DX003 (ip), vehicle: saline 190 % of control | dose: 2500.0 micrograms/kg/injection, schedule: Q04DX003 (ip), vehicle: saline 230 % of control
inactive: dose: 1.0 mg/kg/injection, schedule: Q01DX009 (ip), vehicle: saline 92 % of control | dose: 1.0 mg/kg/injection, schedule: Q03HX016 (ip), vehicle: saline 96 % of control | dose: 2.0 mg/kg/injection, schedule: Q04DX003 (ip), vehicle: saline 96 % of control | dose: 3.0 mg/kg/injection, schedule: Q04DX003 (ip), vehicle: saline 95 % of control | dose: 4.0 mg/kg/injection, schedule: Q08DX002 (ip), vehicle: saline 100 % of control | dose: 8.0 mg/kg/injection, schedule: Q08DX002 (ip), vehicle: saline 96 % of control

CCN(CCN)c1cccc(C)c1
inactive: dose: 25.0 mg/kg/injection, schedule: Q04DX003 (ip), vehicle: saline sonified 100 % of control | dose: 50.0 mg/kg/injection, schedule: Q04DX003 (ip), vehicle: saline sonified 120 % of control | dose: 100.0 mg/kg/injection, schedule: Q04DX003 (ip), vehicle: saline sonified 100 % of control

COC(=O)c1ccc(CSc2ccccc2NC(=S)Nc2cccc(SC)c2)o1
inactive: dose: 50.0 mg/kg/injection, schedule: Q01DX009 (ip), vehicle: saline with Tween-80 90 % of control | [1] 92 % of control | [2] 90 % of control

CCCCCCCCCCCC[S+](C)C
inactive: dose: 10.0 mg/kg/injection, schedule: Q01DX010 (ip), vehicle: saline 116 % of control | dose: 10.0 mg/kg/injection, schedule: Q04DX003 (ip), vehicle: saline 120 % of control | dose: 20.0 mg/kg/injection, schedule: Q01DX010 (ip), vehicle: saline 112 % of control | dose: 20.0 mg/kg/injection, schedule: Q04DX003 (ip), vehicle: saline 120 % of control

CN(C)/C=C/C=C1C(=O)N(C)C(=O)N(C)C1=O
inactive: dose: 50.0 mg/kg/injection, schedule: Q01DX009 (ip), vehicle: other 94 % of control | dose: 100.0 mg/kg/injection, schedule: Q01DX009 (ip), vehicle: other 97 % of control | dose: 200.0 mg/kg/injection, schedule: Q01DX009 (ip), vehicle: other 102 % of control

NC(=O)NC(=O)/C=C/C(=O)O
inactive: dose: 25.0 mg/kg/injection, schedule: Q04DX003 (ip), vehicle: saline with Tween-80 91 % of control | dose: 50.0 mg/kg/injection, schedule: Q04DX003 (ip), vehicle: saline with Tween-80 100 % of control | [3] 91 % of control

CC1CC(=O)C(O)C2(C)C1CC1OC(=O)C(OC(=O)c3ccccc3)C3C(C)C(O)C4(O)OCC13C42 (stereo not given)
inactive: dose: 0.12 mg/kg/injection, schedule: Q01DX009 (ip), vehicle: saline with Tween-80 110 % of control | dose: 0.25 mg/kg/injection, schedule: Q01DX009 (ip), vehicle: saline with Tween-80 121 % of control | dose: 1.0 mg/kg/injection, schedule: Q01DX009 (ip), vehicle: saline with Tween-80 118 % of control | dose: 2.0 mg/kg/injection, schedule: Q01DX009 (ip), vehicle: saline with Tween-80 121 % of control | dose: 4.0 mg/kg/injection, schedule: Q01DX009 (ip), vehicle: saline with Tween-80 112 % of control | dose: 8.0 mg/kg/injection, schedule: Q01DX009 (ip), vehicle: saline with Tween-80 116 % of control | dose: 16.0 mg/kg/injection, schedule: Q01DX009 (ip), vehicle: saline with Tween-80 118 % of control

CN(/N=C/C(O)C(O)C(O)CO)c1ccccc1 (stereo not given)
inactive: dose: 50.0 mg/kg/injection, schedule: Q04DX003 (ip), vehicle: Klucel (hydroxypropylcellulose) (HPC) 105 % of control | dose: 100.0 mg/kg/injection, schedule: Q04DX003 (ip), vehicle: Klucel (hydroxypropylcellulose) (HPC) 105 % of control | dose: 200.0 mg/kg/injection, schedule: Q04DX003 (ip), vehicle: Klucel (hydroxypropylcellulose) (HPC) 100 % of control

O=C(CCl)N1c2ccccc2Oc2cc3ccccc3cc21
inactive: [1] 104 % of control | [3] 104 % of control | [2] 90 % of control | dose: 200.0 mg/kg/injection, schedule: Q04DX003 (ip), vehicle: saline with Tween-80 100 % of control | dose: 400.0 mg/kg/injection, schedule: Q01DX009 (ip), vehicle: saline with Tween-80 104 % of control | dose: 400.0 mg/kg/injection, schedule: Q04DX003 (ip), vehicle: saline with Tween-80 113 % of control

c1ccc2c(c1)Sc1ccccc1N2CC1CCCN2CCCCC12 (stereo not given)
inactive: dose: 12.5 mg/kg/injection, schedule: Q01DX001 (ip), vehicle: Klucel (hydroxypropylcellulose) (HPC) 106 % of control | dose: 25.0 mg/kg/injection, schedule: Q01DX001 (ip), vehicle: Klucel (hydroxypropylcellulose) (HPC) 100 % of control | dose: 50.0 mg/kg/injection, schedule: Q01DX001 (ip), vehicle: Klucel (hydroxypropylcellulose) (HPC) 93 % of control

CN1N=Nc2cccc3cccc1c23
inactive: dose: 25.0 mg/kg/injection, schedule: Q01DX009 (ip), vehicle: saline 105 % of control | dose: 50.0 mg/kg/injection, schedule: Q01DX009 (ip), vehicle: saline 100 % of control | dose: 100.0 mg/kg/injection, schedule: Q01DX009 (ip), vehicle: saline 105 % of control
